Test results as given in patent publication US20060069132A1, “Azolecarboxamide herbicides” (priority 2004, published 2006).
Where two headings read alike, the source gives them in different places.

Legend:
rice = test: Test B flooded paddy test; format: in vivo, Oryza sativa; details: Oryza sativa, 336 h, 1000 g ai/ha, visual rating, scale 0 to 100 (0 no effect, 100 complete control), 13 to 15 days, read-out: Rice plant response rating
How it was run: (§1)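 Postemergence plants were sprayed with formulated test chemicals at 2 to 18 cm height (1- to 4-leaf stage); paddy species were grown to the 2-leaf stage. After 13 to 15 days in a greenhouse, injury was rated visually against untreated controls on a 0–100 scale (0 = no effect, 100 = complete control).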

barnyardgrass [1] = test: Test B flooded paddy test; format: in vivo, Echinochloa crus-galli; details: Echinochloa crus-galli, 336 h, 1000 g ai/ha, visual rating, scale 0 to 100 (0 no effect, 100 complete control), 13 to 15 days, read-out: Barnyardgrass plant response rating
How it was run: (§2)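 Paddy species grown to the 2-leaf stage under flooding; blackgrass sprayed postemergence at 2–18 cm (1- to 4-leaf stage). Plants kept in a greenhouse for 13 to 15 days, then visually rated against controls on 0 (no effect) to 100 (complete control).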

[2] = test system: small flower umbrella sedge; test: Test B flooded paddy test; format: in vivo, Cyperus difformis; details: Cyperus difformis, 336 h, 1000 g ai/ha, visual rating, scale 0 to 100 (0 no effect, 100 complete control), 13 to 15 days, read-out: Sedge, Umbrella plant response rating
How it was run: as §2

morningglory = test: Test B pre-/postemergence herbicide test; format: in vivo, Ipomoea coccinea; details: Ipomoea, 336 h; for pest or weed control at 125 g/ha: 125 g ai/ha; for pest or weed control at 500 g/ha: 500 g ai/ha
How it was run: (§3)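 Test chemicals in a non-phytotoxic solvent mixture with surfactant were applied preemergence to seeded species and postemergence to plants 2-18 cm tall (1- to 4-leaf stage); rice and barnyardgrass were also tested in a flooded paddy at the 2-leaf stage. Visual rating versus controls after 13-15 days in greenhouse, scale 0 (no effect) to 100 (complete control).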

wild oat = test: Test B postemergence herbicide test; format: in vivo, Avena fatua; details: Avena fatua, post-emergence, 336 h, postemergence, visual rating, scale 0 (no effect) to 100 (complete control), read-out: Oat, Wild plant response rating
How it was run: as §1

pigweed = test: Test B pre-/postemergence herbicide test; format: in vivo, Amaranthus retroflexus; details: Amaranthus retroflexus, 336 h; for pest or weed control at 125 g/ha: 125 g ai/ha; for pest or weed control at 500 g/ha: 500 g ai/ha
How it was run: (§4)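 Response was scored visually 13 to 15 days after treatment against untreated greenhouse controls, 0 meaning no effect and 100 complete control. Formulations (solvent mixture plus surfactant) went onto soil after planting, onto foliage of 1- to 4-leaf plants, and onto 2-leaf plants in a flooded paddy set including rice and barnyardgrass.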

cocklebur = test: Test B pre-/postemergence herbicide test; format: in vivo, Xanthium strumarium; details: Xanthium strumarium; for pest or weed control at 125 g/ha: 125 g ai/ha; for pest or weed control at 500 g/ha: 500 g ai/ha
How it was run: as §3

giant foxtail = test: Test B pre-/postemergence herbicide test; format: in vivo, Setaria faberi; details: Setaria faberi, 336 h; for pest or weed control at 125 g/ha: 125 g ai/ha; for pest or weed control at 500 g/ha: 500 g ai/ha
How it was run: as §4

blackgrass = test: Test B postemergence herbicide test; format: in vivo, Alopecurus myosuroides; details: Alopecurus myosuroides, post-emergence, 336 h, postemergence, visual rating, scale 0 (no effect) to 100 (complete control), read-out: Blackgrass plant response rating
How it was run: as §2

large crabgrass = test: Test B pre-/postemergence herbicide test; format: in vivo, Digitaria sanguinalis; details: Digitaria sanguinalis; for pest or weed control at 125 g/ha: 125 g ai/ha; for pest or weed control at 500 g/ha: 500 g ai/ha
How it was run: as §4

wheat = test: Test B postemergence herbicide test; format: in vivo, Triticum aestivum; details: Triticum aestivum, post-emergence, 336 h, postemergence, visual rating, scale 0 (no effect) to 100 (complete control), read-out: Wheat plant response rating
How it was run: as §1

Surinam grass = test: Test B pre-/postemergence herbicide test; format: in vivo, Urochloa decumbens; details: Urochloa decumbens; for pest or weed control at 125 g/ha: 125 g ai/ha; for pest or weed control at 500 g/ha: 500 g ai/ha
How it was run: as §4

corn = test: Test B pre-/postemergence herbicide test; format: in vivo, Zea mays; details: Zea mays; for plant injury at 125 g/ha: 125 g ai/ha
How it was run: as §4

velvetleaf = test: Test B pre-/postemergence herbicide test; format: in vivo, Abutilon theophrasti; details: Abutilon theophrasti, 336 h; for pest or weed control at 125 g/ha: 125 g ai/ha; for pest or weed control at 500 g/ha: 500 g ai/ha
How it was run: as §4

barnyardgrass [3] = test: Test B pre-/postemergence herbicide test; format: in vivo, Echinochloa crus-galli; details: Echinochloa crus-galli; for pest or weed control at 125 g/ha: 125 g ai/ha; for pest or weed control at 500 g/ha: 500 g ai/ha
How it was run: as §3

ducksalad = test: Test B flooded paddy test; format: in vivo, Heteranthera limosa; details: Heteranthera limosa, 336 h, 1000 g ai/ha, visual rating, scale 0 to 100 (0 no effect, 100 complete control), 13 to 15 days, read-out: Ducksalad plant response rating
How it was run: as §2

[4] = post-emergence, postemergence, visual rating, scale 0 (no effect) to 100 (complete control), read-out: Morningglory plant response rating
[5] = post-emergence, postemergence, visual rating, scale 0 (no effect) to 100 (complete control), read-out: Pigweed plant response rating
[6] = post-emergence, postemergence, visual rating, scale 0 (no effect) to 100 (complete control), read-out: Cocklebur plant response rating
[7] = post-emergence, postemergence, visual rating, scale 0 (no effect) to 100 (complete control), read-out: Foxtail, Giant plant response rating
[8] = post-emergence, postemergence, visual rating, scale 0 (no effect) to 100 (complete control), read-out: Crabgrass, Large plant response rating
[9] = post-emergence, postemergence, visual rating, scale 0 (no effect) to 100 (complete control), read-out: Surinam Grass plant response rating
[10] = post-emergence, postemergence, visual rating, scale 0 (no effect) to 100 (complete control), read-out: Velvetleaf plant response rating
[11] = post-emergence, postemergence, visual rating, scale 0 (no effect) to 100 (complete control), read-out: Barnyardgrass plant response rating

CCc1nn(C(C)(C)C)cc1C(=O)Nc1cccc(C(=O)N(CC)CC)c1 [Compound 182, N-[3-[(diethylamino)carbonyl]phenyl]-1-(1,1-dimethylethyl)-3-ethyl-1H-pyrazole-4-carboxamide]
plant injury at 1000 g/ha (rice): 0% | pest or weed control at 1000 g/ha (barnyardgrass [1]): 40% | pest or weed control at 1000 g/ha [2]: 80% | pest or weed control at 125 g/ha (morningglory; [4]): 50% | pest or weed control at 500 g/ha (morningglory; [4]): 70% | pest or weed control at 125 g/ha (morningglory; pre-emergence, 0 = no effect, 100 = complete control, read-out: Morningglory plant response rating (0 to 100 scale)): 10% | pest or weed control at 500 g/ha (morningglory; pre-emergence, visual rating 0-100, 0 no effect, 100 complete control, read-out: Plant response rating, Morningglory): 30% | pest or weed control at 125 g/ha (wild oat; 125 g ai/ha): 20% | pest or weed control at 500 g/ha (wild oat; 500 g ai/ha): 30% | pest or weed control at 125 g/ha (pigweed; [5]): 50% | pest or weed control at 500 g/ha (pigweed; [5]): 70% | pest or weed control at 125 g/ha (pigweed; pre-emergence, 0 = no effect, 100 = complete control, read-out: Pigweed plant response rating (0 to 100 scale)): 100% | pest or weed control at 500 g/ha (pigweed; pre-emergence, visual rating 0-100, 0 no effect, 100 complete control, read-out: Plant response rating, Pigweed): 100% | pest or weed control at 125 g/ha (cocklebur; [6]): 50% | pest or weed control at 500 g/ha (cocklebur; [6]): 60% | pest or weed control at 125 g/ha (cocklebur; pre-emergence, 0 = no effect, 100 = complete control, read-out: Cocklebur plant response rating (0 to 100 scale)): 0% | pest or weed control at 500 g/ha (cocklebur; pre-emergence, visual rating 0-100, 0 no effect, 100 complete control, read-out: Plant response rating, Cocklebur): 0% | pest or weed control at 125 g/ha (giant foxtail; [7]): 0% | pest or weed control at 500 g/ha (giant foxtail; [7]): 20% | pest or weed control at 125 g/ha (giant foxtail; pre-emergence, 0 = no effect, 100 = complete control, read-out: Foxtail, Giant plant response rating (0 to 100 scale)): 30% | pest or weed control at 500 g/ha (giant foxtail; pre-emergence, visual rating 0-100, 0 no effect, 100 complete control, read-out: Plant response rating, Foxtail, Giant): 100% | pest or weed control at 125 g/ha (blackgrass; 125 g ai/ha): 0% | pest or weed control at 500 g/ha (blackgrass; 500 g ai/ha): 0% | pest or weed control at 125 g/ha (large crabgrass; [8]): 20% | pest or weed control at 500 g/ha (large crabgrass; [8]): 30% | pest or weed control at 125 g/ha (large crabgrass; pre-emergence, 0 = no effect, 100 = complete control, read-out: Crabgrass, Large plant response rating (0 to 100 scale)): 70% | pest or weed control at 500 g/ha (large crabgrass; pre-emergence, visual rating 0-100, 0 no effect, 100 complete control, read-out: Plant response rating, Crabgrass, Large): 100% | plant injury at 125 g/ha (wheat; 125 g ai/ha): 0% | plant injury at 500 g/ha (wheat; 500 g ai/ha): 10% | pest or weed control at 125 g/ha (Surinam grass; [9]): 10% | pest or weed control at 500 g/ha (Surinam grass; [9]): 20% | pest or weed control at 125 g/ha (Surinam grass; pre-emergence, 0 = no effect, 100 = complete control, read-out: Surinam Grass plant response rating (0 to 100 scale)): 20% | pest or weed control at 500 g/ha (Surinam grass; pre-emergence, visual rating 0-100, 0 no effect, 100 complete control, read-out: Plant response rating, Surinam Grass): 60% | plant injury at 125 g/ha (corn; post-emergence, postemergence, visual rating, scale 0 (no effect) to 100 (complete control), read-out: Corn plant response rating): 30% | plant injury at 500 g/ha (corn; post-emergence, postemergence, 500 g ai/ha, visual rating, scale 0 (no effect) to 100 (complete control), read-out: Corn plant response rating): 30% | plant injury at 125 g/ha (corn; pre-emergence, 0 = no effect, 100 = complete control, read-out: Corn plant response rating (0 to 100 scale)): 0% | Corn plant response rating (crop injury, 0 = no effect, 100 = complete kill) at 500 g/ha (corn; pre-emergence, 500 g ai/ha, visual rating 0-100, 0 no effect, 100 complete control): 0% | pest or weed control at 125 g/ha (velvetleaf; [10]): 0% | pest or weed control at 500 g/ha (velvetleaf; [10]): 60% | pest or weed control at 125 g/ha (velvetleaf; pre-emergence, 0 = no effect, 100 = complete control, read-out: Velvetleaf plant response rating (0 to 100 scale)): 0% | pest or weed control at 500 g/ha (velvetleaf; pre-emergence, visual rating 0-100, 0 no effect, 100 complete control, read-out: Plant response rating, Velvetleaf): 70% | pest or weed control at 125 g/ha (barnyardgrass [3]; [11]): 30% | pest or weed control at 500 g/ha (barnyardgrass [3]; [11]): 50% | pest or weed control at 125 g/ha (barnyardgrass [3]; pre-emergence, 0 = no effect, 100 = complete control, read-out: Barnyardgrass plant response rating (0 to 100 scale)): 20% | pest or weed control at 500 g/ha (barnyardgrass [3]; pre-emergence, visual rating 0-100, 0 no effect, 100 complete control, read-out: Plant response rating, Barnyardgrass): 80% | pest or weed control at 1000 g/ha (ducksalad): 60%
